Experimental data published in patent publication US9738631B2, “Compositions and methods for the treatment of neurological disorders” (CELLIXBIO PRIVATE LIMITED, priority 2012, dated 2017).

Experiments:
[1] = Pharmacokinetic profiles over 24 hours in normal and diabetic rats (toxicokinetic study); assay type: in vivo, Sprague Dawely rats; details: for reduction of AUC0-24 by diabetes / reduction of AUC0-inf by diabetes / reduction of Cmax by diabetes: streptozotocin-diabetic rats
Experimental: Toxicokinetic Effects of Carbamazepine and Formula (1-2) in Diabetic Rats […] Animals were divided into […], normal and diabetic sets; each set was divided into control and three-treated groups where rats received orally carbamazepine and formula (1-2) in dose levels of 100 and 200 mg/kg once daily for 28 days. The pharmacokinetic profiles were carried out over a period of 24 hours. The liver functions were evaluated by the determination of albumin, ALT and AST plasma levels and kidney functions were determined by creatinine and urea. Histopathology of rat's livers and kidneys were also investigated. Carbamazepine plasma levels were determined by a validated HPLC method.

[2] = system: adult male Sprague Dawely rats; assay: Liver and kidney functions (albumin, ALT, AST, creatinine, urea) after 28 days oral dosing; assay type: in vivo
Experimental: Toxicokinetic Effects of Carbamazepine and Formula (1-2) in Diabetic Rats
Diabetes was induced in adult male Sprague Dawely rats by streptozotocin (60 mg/kg, ip). Animals were divided into […], normal and diabetic sets; each set was divided into control and three-treated groups where rats received orally carbamazepine and formula (1-2) in dose levels of 100 and 200 mg/kg once daily for 28 days. The pharmacokinetic profiles were carried out over a period of 24 hours. The liver functions were evaluated by the determination of albumin, ALT and AST plasma levels and kidney functions were determined by creatinine and urea. Histopathology of rat's livers and kidneys were also investigated. Carbamazepine plasma levels were determined by a validated HPLC method.

[3] = treated groups, 100 and 200 mg/kg orally once daily for 28 days, P<0.05

Question: Which “reduction of AUC0-24 by diabetes” value ([1]; carbamazepine 100 mg/kg orally) does the source give for NC(=O)N1c2ccccc2C=Cc2ccccc21 [carbamazepine, Carbamazepine] here?
Answer: 13.6%

Question: What about the “reduction of AUC0-inf by diabetes” value ([1]; carbamazepine 100 mg/kg orally) of the same compound?
Answer: 22.8%

Question: What about the “reduction of Cmax by diabetes” value ([1]; carbamazepine 100 mg/kg orally) of the same compound?
Answer: 6.8%

Question: What about the “reduction of AUC0-24 by diabetes” value ([1]; carbamazepine 200 mg/kg orally) of the same compound?
Answer: 12.2%

Question: What about the “reduction of AUC0-inf by diabetes” value ([1]; carbamazepine 200 mg/kg orally) of the same compound?
Answer: 32.8%

Question: And the “reduction of Cmax by diabetes” value ([1]; carbamazepine 200 mg/kg orally)?
Answer: 20.3%

Question: What about the “effect of diabetes on the rate and extent of absorption” value ([1]; diabetic rats, P<0.05) of the same compound?
Answer: significantly altered

Question: And the “elevation of liver enzymes, urea and creatinine in diabetic rats compared with normal rats” value ([2]; diabetic rats)?
Answer: more pronounced in diabetic rats

Question: What about the Liver enzymes levels [2, 3] of the same compound?
Answer: significantly elevated

Question: And the creatinine levels [2, 3]?
Answer: significantly elevated

Question: What about the urea levels [2, 3] of the same compound?
Answer: significantly elevated
